# Results reported in ChEMBL document CHEMBL5042510, “Structure-Guided Discovery of Aminoquinazolines as Brain-Penetrant and Selective LRRK2 Inhibitors” (J Med Chem, 2022).
# What was measured:
# rat Mdr1a (P-gp) [1] = assay: Efflux ratio of apparent permeability across basolateral to apical side over apical to basolateral side in rat Mdr1a-transfected pig LLC-PK1 cells at 0.1 to 1 uM measured after 3 hrs by LC/MS/MS analysis; assay type: ADME, cell-based, Sus scrofa; settings: dose 0.1-1 µM
# [2] = Oral bioavailability in Wistar Han rat at 10 mg/kg by LC-MS/MS analysis; assay type: ADME, organism-based; settings: in vivo
# [3] = Intrinsic clearance in Beagle dog at 2 mg/kg, iv by LC-MS/MS analysis; assay type: ADME, organism-based, Canis lupus familiaris; settings: in vivo
# [4] = Intrinsic clearance in human hepatocytes at 0.3 uM incubated for 90 mins by LC/MS/MS analysis; assay type: ADME, cell-based, Hepatocyte; settings: read-out: CLH
# [5] = Intrinsic clearance in Wistar Han rat at 2 mg/kg, iv by LC-MS/MS analysis; assay type: ADME, organism-based; settings: in vivo
# [6] = Intrinsic clearance in dog hepatocytes at 0.3 uM incubated for 90 mins by LC/MS/MS analysis; assay type: ADME, cell-based, Canis lupus familiaris, Hepatocyte; settings: read-out: CLH
# [7] = system: Leucine-rich repeat serine/threonine-protein kinase 2 (Homo sapiens), Q5S007 [G2019S]; assay: Inhibition of LRRK2 […] mutant expressed in human SH-SY5Y cells assessed as unbound concentration required for inhibition of phosphorylation of LRRK2 at Ser935 residue incubated for 90 mins by MSD assay; assay type: cell-based
# Sequence of Leucine-rich repeat serine/threonine-protein kinase 2 (Homo sapiens), Q5S007 [G2019S] (Q5S007 whole entry G2019S): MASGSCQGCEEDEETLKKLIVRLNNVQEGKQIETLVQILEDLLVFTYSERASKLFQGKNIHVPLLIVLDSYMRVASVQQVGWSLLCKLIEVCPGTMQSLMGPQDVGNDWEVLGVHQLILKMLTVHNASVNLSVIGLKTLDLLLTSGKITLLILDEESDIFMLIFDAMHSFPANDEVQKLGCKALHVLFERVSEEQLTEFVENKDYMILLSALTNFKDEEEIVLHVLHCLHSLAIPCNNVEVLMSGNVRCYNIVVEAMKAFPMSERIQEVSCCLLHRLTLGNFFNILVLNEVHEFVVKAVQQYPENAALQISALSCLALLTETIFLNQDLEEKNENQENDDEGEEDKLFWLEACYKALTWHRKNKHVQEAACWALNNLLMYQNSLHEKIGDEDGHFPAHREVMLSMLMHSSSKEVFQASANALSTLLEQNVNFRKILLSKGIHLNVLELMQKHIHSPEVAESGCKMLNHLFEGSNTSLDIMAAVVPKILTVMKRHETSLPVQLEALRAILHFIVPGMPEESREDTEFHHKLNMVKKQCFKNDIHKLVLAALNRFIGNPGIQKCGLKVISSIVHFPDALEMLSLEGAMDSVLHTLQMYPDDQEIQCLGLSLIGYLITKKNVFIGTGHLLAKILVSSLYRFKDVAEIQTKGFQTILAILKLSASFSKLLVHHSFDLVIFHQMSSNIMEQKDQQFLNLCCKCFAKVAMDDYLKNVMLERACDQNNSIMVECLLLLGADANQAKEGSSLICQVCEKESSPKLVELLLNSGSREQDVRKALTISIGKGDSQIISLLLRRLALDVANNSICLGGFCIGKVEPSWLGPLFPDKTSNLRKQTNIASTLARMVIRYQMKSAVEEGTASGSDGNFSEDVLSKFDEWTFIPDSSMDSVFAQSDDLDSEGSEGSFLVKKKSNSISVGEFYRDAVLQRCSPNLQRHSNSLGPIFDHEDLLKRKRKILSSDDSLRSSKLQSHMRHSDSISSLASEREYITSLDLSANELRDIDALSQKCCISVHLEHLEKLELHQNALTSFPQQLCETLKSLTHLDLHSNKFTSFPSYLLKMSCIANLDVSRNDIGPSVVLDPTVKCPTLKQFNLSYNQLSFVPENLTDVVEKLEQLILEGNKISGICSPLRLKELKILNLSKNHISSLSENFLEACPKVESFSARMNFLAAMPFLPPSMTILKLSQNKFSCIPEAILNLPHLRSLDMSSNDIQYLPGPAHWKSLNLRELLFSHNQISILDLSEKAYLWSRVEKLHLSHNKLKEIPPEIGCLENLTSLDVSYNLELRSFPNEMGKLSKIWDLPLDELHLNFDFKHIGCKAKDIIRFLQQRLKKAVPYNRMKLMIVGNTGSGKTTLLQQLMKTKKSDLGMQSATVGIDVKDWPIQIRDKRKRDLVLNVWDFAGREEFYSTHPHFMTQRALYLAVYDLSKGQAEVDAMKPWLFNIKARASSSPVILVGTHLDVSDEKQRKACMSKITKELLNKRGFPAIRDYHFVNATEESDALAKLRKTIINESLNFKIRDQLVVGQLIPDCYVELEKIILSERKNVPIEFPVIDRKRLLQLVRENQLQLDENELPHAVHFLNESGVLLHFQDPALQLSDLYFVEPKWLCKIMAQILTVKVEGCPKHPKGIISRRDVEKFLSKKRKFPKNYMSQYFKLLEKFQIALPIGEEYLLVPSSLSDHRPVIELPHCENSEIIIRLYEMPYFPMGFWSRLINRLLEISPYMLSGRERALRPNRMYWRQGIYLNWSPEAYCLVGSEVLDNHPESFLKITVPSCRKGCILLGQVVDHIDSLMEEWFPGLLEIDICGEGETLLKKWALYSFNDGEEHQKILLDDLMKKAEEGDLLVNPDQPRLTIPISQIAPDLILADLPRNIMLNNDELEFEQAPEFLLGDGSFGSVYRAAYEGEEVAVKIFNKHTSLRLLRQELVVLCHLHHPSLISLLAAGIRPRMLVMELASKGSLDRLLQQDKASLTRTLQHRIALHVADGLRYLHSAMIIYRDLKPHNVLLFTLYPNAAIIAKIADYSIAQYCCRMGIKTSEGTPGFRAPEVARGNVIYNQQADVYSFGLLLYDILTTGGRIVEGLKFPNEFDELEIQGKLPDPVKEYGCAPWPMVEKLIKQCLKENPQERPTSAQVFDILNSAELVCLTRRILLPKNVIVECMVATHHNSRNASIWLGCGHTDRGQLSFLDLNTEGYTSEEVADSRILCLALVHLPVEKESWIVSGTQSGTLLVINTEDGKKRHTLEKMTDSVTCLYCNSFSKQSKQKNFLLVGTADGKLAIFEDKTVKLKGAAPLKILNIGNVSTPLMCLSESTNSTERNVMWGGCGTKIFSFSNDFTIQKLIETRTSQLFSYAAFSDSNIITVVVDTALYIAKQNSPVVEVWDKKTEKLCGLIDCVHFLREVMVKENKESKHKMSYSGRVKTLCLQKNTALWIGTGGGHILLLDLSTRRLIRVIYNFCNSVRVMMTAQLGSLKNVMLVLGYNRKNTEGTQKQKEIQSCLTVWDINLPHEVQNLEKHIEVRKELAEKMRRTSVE
# [8] = target: Voltage-gated inwardly rectifying potassium channel KCNH2 (Homo sapiens, UniProt Q12809); assay: Inhibition of human ERG by voltage clamp assay; assay type: toxicity
# Sequence of Voltage-gated inwardly rectifying potassium channel KCNH2 (Q12809 whole entry): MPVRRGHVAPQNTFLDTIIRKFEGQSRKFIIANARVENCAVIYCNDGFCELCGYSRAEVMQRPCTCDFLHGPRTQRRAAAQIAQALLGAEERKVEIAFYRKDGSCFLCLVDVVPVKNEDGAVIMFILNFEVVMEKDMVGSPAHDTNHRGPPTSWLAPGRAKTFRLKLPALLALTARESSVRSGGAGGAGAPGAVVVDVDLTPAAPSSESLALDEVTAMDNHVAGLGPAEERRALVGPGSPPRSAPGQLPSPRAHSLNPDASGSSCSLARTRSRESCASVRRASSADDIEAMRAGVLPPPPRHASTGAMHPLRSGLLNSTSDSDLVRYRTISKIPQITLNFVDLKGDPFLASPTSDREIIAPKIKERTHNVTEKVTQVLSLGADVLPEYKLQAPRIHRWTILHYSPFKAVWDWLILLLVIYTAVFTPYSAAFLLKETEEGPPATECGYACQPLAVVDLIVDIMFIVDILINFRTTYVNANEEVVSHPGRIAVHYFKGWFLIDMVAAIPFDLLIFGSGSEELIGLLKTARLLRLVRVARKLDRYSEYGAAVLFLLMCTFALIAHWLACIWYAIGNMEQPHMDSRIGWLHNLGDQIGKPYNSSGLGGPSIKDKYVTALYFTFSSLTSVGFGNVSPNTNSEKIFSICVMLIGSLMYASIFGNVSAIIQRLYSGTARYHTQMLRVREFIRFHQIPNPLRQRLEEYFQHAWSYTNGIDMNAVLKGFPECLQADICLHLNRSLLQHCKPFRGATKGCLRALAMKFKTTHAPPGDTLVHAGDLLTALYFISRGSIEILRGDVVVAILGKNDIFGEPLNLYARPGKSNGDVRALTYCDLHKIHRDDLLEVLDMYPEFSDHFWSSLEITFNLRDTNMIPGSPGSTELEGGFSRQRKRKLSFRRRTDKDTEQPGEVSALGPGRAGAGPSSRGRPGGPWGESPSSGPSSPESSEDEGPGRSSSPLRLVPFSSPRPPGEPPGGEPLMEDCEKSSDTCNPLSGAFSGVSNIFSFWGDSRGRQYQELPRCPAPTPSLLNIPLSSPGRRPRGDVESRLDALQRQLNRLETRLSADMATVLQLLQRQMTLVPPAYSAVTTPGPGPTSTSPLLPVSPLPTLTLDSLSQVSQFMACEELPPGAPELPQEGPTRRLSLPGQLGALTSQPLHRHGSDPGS
# [9] = MRT in Wistar Han rat at 2 mg/kg, iv by LC-MS/MS analysis; assay type: ADME, organism-based; settings: in vivo
# [10] = Total plasma clearance in Wistar Han rat at 2 mg/kg, iv by LC-MS/MS analysis; assay type: ADME, organism-based
# [11] = Unbound brain-to-plasma concentration ratio in rat at 2.5 uM incubated for 4 hrs by equilibrium dialysis method; assay type: ADME, cell-free; settings: brain and plasma (unbound), read-out: K(p,uu,brain)
# [12] = MRT in Beagle dog at 2 mg/kg, iv by LC-MS/MS analysis; assay type: ADME, organism-based, Canis lupus familiaris; settings: in vivo
# [13] = Total plasma clearance in Beagle dog at 2 mg/kg, iv by LC-MS/MS analysis; assay type: ADME, organism-based, Canis lupus familiaris
# [14] = target: Leucine-rich repeat serine/threonine-protein kinase 2 (Homo sapiens, UniProt Q5S007, G2019S); assay: Inhibition of recombinant N-terminal GST-fused LRRK2 […] mutant (970 to 2527 residues) (unknown origin) preincubated with enzyme for 15 mins followed by fluorescein-labeled LRRKtide peptide substrate and ATP addition for 90 mins by TR-FRET assay
# Sequence of Leucine-rich repeat serine/threonine-protein kinase 2 (Q5S007 whole entry G2019S, the tested form may be a part): as the sequence (Q5S007 whole entry G2019S) above
# [15] = Intrinsic clearance in rat hepatocytes at 0.3 uM incubated for 90 mins by LC/MS/MS analysis; assay type: ADME, cell-based, Hepatocyte; settings: read-out: CLH
# mouse Bcrp = assay: Efflux ratio of apparent permeability across basolateral to apical over apical to basolateral side in mouse Bcrp-transfected dog MDCK-II cells at 0.1 to 1 uM measured after 3 hrs by LC/MS/MS analysis; assay type: ADME, cell-based, Canis lupus familiaris; settings: dose 0.1-1 µM
# [16] = Oral bioavailability in Beagle dog by LC-MS/MS analysis; assay type: ADME, organism-based, Canis lupus familiaris; settings: in vivo
# rat Mdr1a (P-gp) [17] = assay: Apparent permeability from apical to basolateral side in rat Mdr1a-transfected pig LLC-PK1 cells at 0.1 to 1 uM measured after 3 hrs by LC/MS/MS analysis; assay type: ADME, cell-based, Sus scrofa; settings: dose 0.1-1 µM
# [18] = Intrinsic clearance in Wistar Han rat at 0.1 mg/kg, iv by LC-MS/MS analysis; assay type: ADME, organism-based; settings: in vivo
# [19] = Total plasma clearance in Wistar Han rat at 0.1 mg/kg, iv by LC-MS/MS analysis; assay type: ADME, organism-based
# [20] = Lipophilicity, logD of the compound by HPLC analysis; assay type: physicochemical
# [21] = MRT in Wistar Han rat at 0.1 mg/kg, iv by LC-MS/MS analysis; assay type: ADME, organism-based; settings: in vivo
# Homo sapiens [22] = organism: Homo sapiens; assay: Selectivity ratio of IC50 for AURKA (unknown origin) to IC50 for LRRK2 (unknown origin)
# [23] = MRT in Beagle dog at 0.25 mg/kg, iv by LC-MS/MS analysis; assay type: ADME, organism-based, Canis lupus familiaris; settings: in vivo
# [24] = Toxicity in rat assessed as body weight loss at 300 mg/kg, po qd administered for 4 days; assay type: organism-based; settings: in vivo, 96 h, time 4 day
# [25] = Intrinsic clearance in Beagle dog at 0.25 mg/kg, iv by LC-MS/MS analysis; assay type: ADME, organism-based, Canis lupus familiaris; settings: in vivo
# Salmonella typhimurium [26] = assay: Mutagenicity in Salmonella typhimurium TA100 at 30 to 5000 ug incubated for 48 hrs in presence of liver S9 fraction by AMES test; assay type: toxicity, organism-based, Salmonella enterica subsp. enterica serovar Typhimurium; settings: s9, 48 h, dose 30-5000 µg
# Homo sapiens [27] = organism: Homo sapiens; assay: Selectivity ratio of IC50 for MAP3K8 (unknown origin) to IC50 for LRRK2 (unknown origin)
# [28] = Toxicity in rat assessed as elevation of liver enzyme biomarker levels at 300 mg/kg, po qd administered for 4 days; assay type: organism-based; settings: in vivo, 96 h, time 4 day
# [29] = Total plasma clearance in Beagle dog at 0.25 mg/kg, iv by LC-MS/MS analysis; assay type: ADME, organism-based, Canis lupus familiaris
# [30] = Toxicity in rat assessed as drug tolerability at 25 to 300 mg/kg, po qd administered for 4 days; assay type: organism-based; settings: in vivo, 96 h, dose 25-300 mg/kg, time 4 day
# Homo sapiens [31] = organism: Homo sapiens; assay: Selectivity ratio of IC50 for PRKCZ (unknown origin) to IC50 for LRRK2 (unknown origin)
# [32] = Oral bioavailability in Beagle dog at 0.5 mg/kg by LC-MS/MS analysis; assay type: ADME, organism-based, Canis lupus familiaris; settings: in vivo
# [33] = In vivo inhibition of LRRK2 in po dosed CD rat assessed as unbound concentration required for reduction in phosphorylation at Ser935 residue in striatum measured after 2 hrs by MSD assay; assay type: functional
# [34] = target: T1, 5-hydroxytryptamine receptor 1A (Homo sapiens) (UniProt P08908); assay: Inhibition of human 5HT1A receptor at 10 uM
# T1 sequence (whole entry): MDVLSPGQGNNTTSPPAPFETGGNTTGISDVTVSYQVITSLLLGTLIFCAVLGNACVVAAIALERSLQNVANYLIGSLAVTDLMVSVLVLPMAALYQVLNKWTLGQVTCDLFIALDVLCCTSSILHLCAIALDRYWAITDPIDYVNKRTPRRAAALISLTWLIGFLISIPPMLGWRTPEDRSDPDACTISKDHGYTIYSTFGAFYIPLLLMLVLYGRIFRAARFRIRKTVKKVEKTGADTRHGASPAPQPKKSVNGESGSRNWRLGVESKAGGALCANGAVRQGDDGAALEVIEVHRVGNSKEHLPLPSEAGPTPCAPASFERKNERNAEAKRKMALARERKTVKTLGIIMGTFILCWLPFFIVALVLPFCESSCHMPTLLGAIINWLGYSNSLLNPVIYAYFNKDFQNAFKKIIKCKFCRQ
# [35] = Toxicity in rat assessed as positive liver transcriptional score at 300 mg/kg, po qd administered for 4 days; assay type: organism-based; settings: in vivo, 96 h, time 4 day
# Salmonella typhimurium [36] = assay: Mutagenicity in Salmonella typhimurium TA1535 at 30 to 5000 ug incubated for 48 hrs in presence of liver S9 fraction by AMES test; assay type: toxicity, organism-based, Salmonella enterica subsp. enterica serovar Typhimurium; settings: s9, 48 h, dose 30-5000 µg
# [37] = Toxicity in rat assessed as positive heart transcriptional score at 300 mg/kg, po qd administered for 4 days; assay type: organism-based; settings: in vivo, 96 h, time 4 day
# Salmonella typhimurium [38] = assay: Mutagenicity in Salmonella typhimurium TA98 at 30 to 5000 ug incubated for 48 hrs in presence of liver S9 fraction by AMES test; assay type: toxicity, organism-based, Salmonella enterica subsp. enterica serovar Typhimurium; settings: s9, 48 h, dose 30-5000 µg
"efflux ratio at 3 h, up to 1 µM (rat Mdr1a (P-gp) [1])",bioavailability [2],CLint scaled at 0.3 µM [4],CL [5],CLint scaled at 0.3 µM [6],fIC50 [7],MRT [9],clearance [10],"Kp uu at 4 h, 2.5 µM [11]",IC50 [14],CLint scaled at 0.3 µM [15],"efflux ratio at 3 h, up to 1 µM (mouse Bcrp)","Papp A→B at 3 h, up to 1 µM (rat Mdr1a (P-gp) [17])",CL [18],clearance [19],logD [20],MRT [21],SMILES,IC50 [8],other results
3,26%,49 mL/min/kg,260 mL/min/kg,294 mL/min/kg,9.9 nM,2.1 h,14 mL/min/kg,0.2,0.65 nM,457 mL/min/kg,4.2,35 ×10⁻⁶ cm/s,,,,,Cc1c(Nc2ncc3cc(Cl)c(C4CCN(C5COC5)CC4)cc3n2)cnn1C1CC1,15000 nM,CL [3]: 477 mL/min/kg; MRT [12]: 2 h; clearance [13]: 23 mL/min/kg; bioavailability [16]: 38%
35,,< 6 mL/min/kg,,,3.2 nM,,,,< 0.6 nM,17 mL/min/kg,,27 ×10⁻⁶ cm/s,26 mL/min/kg,9 mL/min/kg,1.4,1.6 h,Cc1c(Nc2ncc3ccc(N4C(=O)OC[C@@H]4C)cc3n2)cnn1C1CCOCC1,,
0.65,,162 mL/min/kg,,,31 nM,,,,1 nM,898 mL/min/kg,,36 ×10⁻⁶ cm/s,1219 mL/min/kg,34 mL/min/kg,2.7,0.6 h,Cc1c(Nc2ncc3cccc(C4CC4)c3n2)cnn1C1CCOCC1,,
4.2,95%,132 mL/min/kg,175 mL/min/kg,150 mL/min/kg,58 nM,2.7 h,11 mL/min/kg,0.3,0.8 nM,311 mL/min/kg,4.2,33 ×10⁻⁶ cm/s,,,,,CC(C)(O)Cn1ncc(Nc2ncc3cc(Cl)c(C4CCN(C5COC5)CC4)cc3n2)c1Cl,23000 nM,Ratio IC50 (Homo sapiens [22]): < 100; MRT [23]: 7.8 h; Activity [24]: 11%; CL [25]: 63 mL/min/kg; Activity (Salmonella typhimurium [26]): Non-Toxic; Ratio IC50 (Homo sapiens [27]): < 100; Activity [28]: Toxic; clearance [29]: 7 mL/min/kg; Activity [30]: Non-Toxic; Ratio IC50 (Homo sapiens [31]): < 100; bioavailability [32]: 85%; fIC50 [33]: 68 nM; inhibition [34]: > 50%; Activity [35]: Toxic; Activity (Salmonella typhimurium [36]): Non-Toxic; Activity [37]: Toxic; Activity (Salmonella typhimurium [38]): Non-Toxic
